Source: article PMC6328172, “5-HT2 receptor binding, functional activity and selectivity in N-benzyltryptamines” (PLoS ONE, 2019)
Values joined by “and” are separate entries in the source; they are usually repeats but may differ in a detail not shown here. Identical values can stand only once. Counter-ions that a name gives are not always drawn. Like-named read-outs stand apart in the source and are kept apart here.

What was measured:
human 5-HT2A receptor [1] = molecular target: T1, human 5-HT2A receptor (Homo sapiens, UniProt P28223); assay: Competition binding to the human 5-HT2A receptor ([3H]ketanserin, CHO-5-HT2A membranes); conditions: for Selectivity 5-HT2A/2C (binding): from Ki values, Table 1; for Ki: human receptor, [3H]ketanserin displacement, no unit in the table, nM, read-out: 5-HT2A Ki (in parentheses) (converted)
T1 construct: expressed in transfected cells; host or cells: CHO (CHO-5-HT2A cell line)

human 5-HT2C receptor [2] = molecular target: T2, human 5-HT2C receptor (Homo sapiens, UniProt P28335); assay: Ca2+ mobilization in HeLa h5-HT2C cells; assay type: cell-based
T2 construct: expressed in transfected cells; host or cells: HeLa (HeLa-5-HT2C cell line)
T2 sequence (P28335 33-458): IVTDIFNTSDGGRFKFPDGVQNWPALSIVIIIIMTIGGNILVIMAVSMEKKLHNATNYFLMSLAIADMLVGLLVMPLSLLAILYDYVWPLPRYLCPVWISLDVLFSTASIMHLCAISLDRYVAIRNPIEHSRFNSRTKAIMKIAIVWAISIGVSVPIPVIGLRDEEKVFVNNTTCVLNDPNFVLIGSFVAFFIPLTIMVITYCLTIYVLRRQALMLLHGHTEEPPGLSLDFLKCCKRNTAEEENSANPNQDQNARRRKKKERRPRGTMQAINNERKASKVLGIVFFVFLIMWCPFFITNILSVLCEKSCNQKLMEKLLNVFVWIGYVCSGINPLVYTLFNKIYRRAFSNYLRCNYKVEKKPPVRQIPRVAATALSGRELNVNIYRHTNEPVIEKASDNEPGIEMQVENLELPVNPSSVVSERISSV

human 5-HT2C receptor [3] = molecular target: T2, human 5-HT2C receptor; assay: Competition binding to the human 5-HT2C receptor ([3H]mesulergine, HeLa-5-HT2C membranes); conditions: for Selectivity 5-HT2C/2A (binding, in parentheses): from Ki values, Table 1; for Ki: human receptor, [3H]mesulergine displacement, no unit in the table, nM, read-out: 5-HT2C Ki (in parentheses) (converted)
human 5-HT2B receptor = human 5-HT2B receptor (Homo sapiens, UniProt P41595); assay: Competition binding to the human 5-HT2B receptor ([3H]LSD, CHO-5-HT2B membranes)
human 5-HT2A receptor [4] = molecular target: T1, human 5-HT2A receptor; assay: Ca2+ mobilization in CHO h5-HT2A cells; assay type: cell-based; conditions: for EC50: Ca2+ mobilization, no unit in the table, nM, read-out: 5-HT2A EC50 (in parentheses) (converted); for Selectivity 5-HT2A/2C (functional): from EC50 values, Table 2; for Emax: relative efficacy, % of response to 5-HT
[5] = Ca2+ mobilization; no unit in the table, nM; read-out: 5-HT2C EC50 (in parentheses) (converted)

T1 sequence (P28223 whole entry): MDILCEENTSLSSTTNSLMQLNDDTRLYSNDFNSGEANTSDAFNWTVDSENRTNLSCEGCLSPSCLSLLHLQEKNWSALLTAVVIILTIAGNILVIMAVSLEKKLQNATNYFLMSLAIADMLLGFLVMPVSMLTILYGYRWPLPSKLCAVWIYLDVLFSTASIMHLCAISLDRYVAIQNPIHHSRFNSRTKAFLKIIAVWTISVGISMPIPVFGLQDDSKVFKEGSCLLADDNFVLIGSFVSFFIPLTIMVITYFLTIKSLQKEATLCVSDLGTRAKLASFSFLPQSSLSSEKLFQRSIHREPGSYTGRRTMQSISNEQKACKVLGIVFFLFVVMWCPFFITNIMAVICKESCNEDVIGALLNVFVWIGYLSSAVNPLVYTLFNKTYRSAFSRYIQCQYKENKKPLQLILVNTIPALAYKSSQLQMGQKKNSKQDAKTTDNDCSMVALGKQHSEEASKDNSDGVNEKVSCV
Sequence of human 5-HT2B receptor (P41595 whole entry): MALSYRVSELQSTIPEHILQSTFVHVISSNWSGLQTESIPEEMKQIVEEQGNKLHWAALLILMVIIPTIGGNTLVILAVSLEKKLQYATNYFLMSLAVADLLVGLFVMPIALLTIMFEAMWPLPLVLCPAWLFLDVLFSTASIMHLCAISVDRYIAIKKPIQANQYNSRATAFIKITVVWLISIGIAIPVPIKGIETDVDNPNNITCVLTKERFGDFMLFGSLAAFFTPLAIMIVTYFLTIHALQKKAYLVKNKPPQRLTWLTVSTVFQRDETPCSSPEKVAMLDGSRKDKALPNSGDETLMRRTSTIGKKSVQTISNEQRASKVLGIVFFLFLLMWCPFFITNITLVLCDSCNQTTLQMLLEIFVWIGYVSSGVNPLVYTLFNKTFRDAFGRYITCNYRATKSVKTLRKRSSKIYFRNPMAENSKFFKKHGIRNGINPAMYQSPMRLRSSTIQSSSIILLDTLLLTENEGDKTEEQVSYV

SMILES | melting point [°C] | Selectivity 5-HT2A/2C (binding) (human 5-HT2A receptor [1]) | Ki (human 5-HT2A receptor [1]) [nM] | EC50 (human 5-HT2C receptor [2]; [5]) [nM] | Emax (human 5-HT2C receptor [2]; HeLa; read-out: 5-HT2C % Emax) [%] | Selectivity 5-HT2C/2A (functional, in parentheses) (human 5-HT2C receptor [2]; from EC50 values, Table 2) | Selectivity 5-HT2C/2A (binding, in parentheses) (human 5-HT2C receptor [3]) | Ki (human 5-HT2C receptor [3]) [nM] | Ki (human 5-HT2B receptor) [nM] | EC50 (human 5-HT2A receptor [4]) | Selectivity 5-HT2A/2C (functional) (human 5-HT2A receptor [4]) | Emax (human 5-HT2A receptor [4]) [%] | Emax (human 5-HT2C receptor [2]; HeLa, read-out: 5-HT2C % Emax) [%]
Oc1cccc(CNCCc2c[nH]c3ccccc23)c1 (as salt: fumarate) [Compound 7, N-(3-Hydroxybenzyl)-[2-(1H-indol-3-yl)ethyl]amine] | 206 to 207 | – | – | – | – | – | – | – | – | – | – | – | –
Cc1ccc(O)c(CNCCc2c[nH]c3ccccc23)c1 (as salt: fumarate) [Compound 23, N-(2-Hydroxy-5-methylbenzyl)-[2-(1H-indol-3-yl)ethyl]amine] | 183 to 185 | – | – | – | – | – | – | – | – | – | – | – | –
COc1ccc(O)c(CNCCc2c[nH]c3ccc(OC)cc23)c1 (as salt: fumarate) [Compound 42, N-(2-Hydroxy-5-methoxybenzyl)-[2-(5-methoxy-1H-indol-3-yl)ethyl]amine] | 196 to 197 | – | – | – | – | – | – | – | – | – | – | – | –
COc1ccc2[nH]cc(CCNCc3cc(F)ccc3O)c2c1 (as salt: fumarate) [Compound 43, N-(5-Fluoro-2-hydroxybenzyl)-[2-(5-methoxy-1H-indol-3-yl)ethyl]amine] | 200 to 201 | – | – | – | – | – | – | – | – | – | – | – | –
COc1ccc2[nH]cc(CCNCc3ccccc3)c2c1 [Compound 37, N-Benzyl-[2-(5-methoxy-1H-indol-3-yl)ethyl]amine] | – | 2.93 | 33.1 | 14.4 | 113 ± 3.47 | 1.41 | 0.34 | 95.5 | 16.6 | 20.4 nM | 0.71 | 63.2 ± 1.44 | –
COc1ccc2[nH]cc(CCNCc3ccccc3Cl)c2c1 [Compound 39, N-(2-Chlorobenzyl)-[2-(5-methoxy-1H-indol-3-yl)ethyl]amine] | – | 5.51 | 13.5 | 81.3 | 106 ± 4.32 | 0.15 | 0.18 | 74.1 | 37.1 | 12 nM | 6.76 | 47.7 ± 1.57 | –
COc1ccc2[nH]cc(CCNCc3ccccc3Br)c2c1 [Compound 40, N-(2-Bromobenzyl)-[2-(5-methoxy-1H-indol-3-yl)ethyl]amine] | – | 5.66 | 12.3 | 27.5 | 105 ± 4.32 | 1.07 | 0.18 | 70.8 | 28.8 | 29.5 nM | 0.93 | 44.8 ± 0.99 | –
COc1ccc2[nH]cc(CCNCc3ccc(Br)cc3)c2c1 [Compound 41, N-(4-Bromobenzyl)-[2-(5-methoxy-1H-indol-3-yl)ethyl]amine] | – | 0.98 | 389 | 132 | 93.5 ± 3.05 | 14.1 | 1.02 | 380 | 155 | 1860 nM | 0.071 | 60.5 ± 2.41 | –
COc1ccc(O)c(CNCCc2c[nH]c3ccc(OC)cc23)c1 [Compound 42, N-(2-Hydroxy-5-methoxybenzyl)-[2-(5-methoxy-1H-indol-3-yl)ethyl]amine] | – | 0.30 | 135 | – | – | 1.1 | 3.31 | 40.7 | 20.4 | – | 0.91 | 43.6 ± 0.9 | 89.4 ± 3.86
COc1ccc2[nH]cc(CCNCc3cc(F)ccc3O)c2c1 [Compound 43, N-(5-Fluoro-2-hydroxybenzyl)-[2-(5-methoxy-1H-indol-3-yl)ethyl]amine] | – | 9.66 | 3.98 | 3.63 | 106 ± 3.05 | 0.38 | 0.10 | 39.8 | 8.91 | 1.4 nM and 1.38 nM | 2.63 | 83.3 ± 2.26 | –
